This is an account of results in PubChem BioAssay (NCI).

The structures appear in SMILES notation.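 In this assay, cells in 96-well plates receive the compound at five concentrations for 48 hours. Endpoints are linearly interpolated between the surrounding concentrations. The concentration for 50% growth inhibition is given as GI50. TGI denotes the concentration required for complete inhibition of growth.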

Assay in all cases: growth of human tumour cells (NCI), 48 h
Assay [1] relates to 786-0 renal.
For assay [2], the system named is CAKI-1 renal.
Assay [3] deals with HCC-2998 colon.
The subject of assay [4] is HL-60(TB) leukemia.
For assay [5], the system named is HOP-92 NSCLC.
Assay [6] concerns NCI-H23 lung.
Assay [7] relates to RXF 393 renal.
For assay [8], the system named is TK-10 renal.
The test system of assay [9] is UO-31 renal.
Assay [10] concerns T-47D breast.

Take `O=C(N[C@@H]1C=CCC[C@@H]1c1ccccc1)OCc1ccccc1`: the TGI in [1] is 39.7 µM; in assay [2], 45.1 µM; in assay [3], 49.3 µM; in [4] it was 34.6 µM; in assay [5] it was 32.1 µM; in assay [6], 51.3 µM. The values for the TGI in assay [7], in assay [8] and in [9] were 35.9 µM, 24.6 µM and 36.7 µM, respectively.

For the molecule `Cc1ccc(/C=N/NS(=O)(=O)c2ccccc2)cc1`, the TGI in assay [1], in assay [2], in assay [3], in assay [4], in assay [5] and in assay [6] was over 100 µM in each case. The TGI in [7], in assay [8] and in assay [9] was over 100 µM throughout.

As to `COc1cc(-c2nc(-c3nnc(-c4ccc(F)c(Cl)c4)o3)c3ccccn23)cc(OC)c1OC`, the GI50 in assay [1] is 2.93 µM; in assay [2], 5.46 µM; in assay [3], 5.64 µM; in [5], 1.55 µM; in [6] it was 4 µM; in assay [7], 2.62 µM. Besides, the GI50 is 2.4 µM in assay [8] and 2.2 µM in assay [9]. Moreover, the TGI in assay [1] is 78.8 µM; in assay [2], over 100 µM; in [3] it was over 100 µM; in assay [5] it was 6.26 µM; in assay [6], over 100 µM; in [7], 7 µM. Besides, the TGI in [8] stood at 5.9 µM; in [9], 7.64 µM.

With `NC1=NN(c2ccccc2)C(=O)C1/C(=N\NC(=O)c1cc2ccccc2cc1O)C(=O)Nc1nc([N+](=O)[O-])cs1` (stereo unspecified), the TGI was over 100 µM in assay [1]; 99 µM in [2]; over 100 µM in [3]; 37.9 µM in assay [4]; 87.5 µM in assay [5]; 56.3 µM in [6]. Further, the results for the TGI in assay [7], in assay [8] and in assay [9] were 7.27 µM, over 100 µM and 30.3 µM, respectively.

Turning to `CN(C)C(=S)/N=c1\ssc(=S)n1-c1ccccc1`, the TGI in [1] turned out to be 30.5 µM; in assay [2], 33.3 µM; in assay [3] it was 46.3 µM; in [4], 44.4 µM; in [5], 34.7 µM; in [6], 77.5 µM. For the same molecule, the TGI in assay [7] came out at 33 µM; in assay [8], 31.4 µM; in assay [9], 44.1 µM.

On to `O=C(O)c1c([N+](=O)[O-])cc(C(F)(F)F)cc1[N+](=O)[O-]`, for which the TGI in assay [1], in assay [2], in assay [4], in [5], in [6] and in [7] was over 100 µM throughout. For the same molecule, the TGI in [8] and in assay [9] was over 100 µM throughout.

With `COc1ccc2nc3ccccc3c(NCCCCCN(CCCl)CCCl)c2c1`, the TGI in assay [1] was 0.137 µM; in [3] it was 0.23 µM; in assay [4], 0.0881 µM; in [5], 0.719 µM; in [6] it was 0.986 µM; in [8], 1.38 µM. In assay [9], this molecule had a TGI of 0.418 µM.

As to `CC(C)(C)CC(C)(C)N(CSc1ccc(Cl)cc1)CSc1ccc(Cl)cc1`, the GI50 in assay [1] was 1.56 µM; in assay [2] it was 1.78 µM; in assay [3] it was 4.62 µM; in assay [4], 1.75 µM; in [7], 1.87 µM; in [9] it was 0.489 µM. Besides, the TGI stood at 4.01 µM in [1]; 4.55 µM in assay [2]; 16.4 µM in assay [3]; 3.96 µM in assay [4]; 7.06 µM in assay [7]; 1.93 µM in assay [9].

As for `CCOc1ccccc1NC(=O)C(=O)C(C(=O)c1ccc2ccccc2c1)C1OC(=O)c2ccccc21` (stereo unspecified), the TGI in [1] was determined as 21.1 µM; in assay [2] it was 36.8 µM; in assay [3], 22.9 µM; in assay [4], 59.3 µM; in assay [5], 38.1 µM; in assay [6] it was 26.2 µM. For the same molecule, the results for the TGI in assay [7], in assay [8] and in assay [9] were 9.05 µM, 54.8 µM and 29.1 µM, respectively.

With `O=S(=O)(CC#CCCCOCC#Cc1ccccc1C#CCS(=O)(=O)c1ccccc1)c1ccccc1`, the GI50 is 18.9 µM in assay [1]; 13.3 µM in assay [2]; 21.8 µM in assay [4]; 15.5 µM in assay [6]; over 100 µM in assay [10]; over 100 µM in assay [8]. Moreover, the GI50 in [9] was 17.7 µM. The TGI is 35.3 µM in [1]; 30.8 µM in assay [2]; 50.1 µM in assay [4]; 44.8 µM in [6]; over 100 µM in [10]; over 100 µM in assay [8]. For the same molecule, in assay [9], the TGI was 35.4 µM.

`O=c1c2cc(Br)ccc2nc(-c2ccccc2)n1NCC1(O)OCC(O)C(O)C1O` (stereo unspecified): the TGI in [1], in [2], in [4], in assay [6], in [7] and in assay [9] was over 100 µM throughout.

Take `O=C(c1ccco1)c1ccccc1C(=O)c1ccco1`: the TGI in assay [1], in assay [2], in assay [3], in assay [4], in assay [5] and in assay [6] was over 100 µM in each case. The TGI in assay [7], in assay [8] and in assay [9] was over 100 µM each time.

Consider `CSc1c(S(C)=O)[nH]c2cc(Br)cc(Br)c12` (stereo unspecified), for which the TGI in [1] worked out at 31.9 µM; in assay [2] it was 74.3 µM; in assay [3], 34.7 µM; in assay [4] it was 52.3 µM; in assay [5], 32.1 µM; in assay [6], 50.4 µM. In addition, the figures for the TGI in assay [7], in assay [8] and in [9] were 33.6 µM, 78.1 µM and 48.7 µM, respectively.
